Results published in patent US20230346988A1, “SYSTEMS FOR IN VIVO MONITORING OF IMMUNE CELLS IN PATIENTS UNDERGOING CELLULAR IMMUNOTHERAPY” (Memorial Sloan Kettering Cancer Center, priority 2020, published 2023).

Tested on: antitumor/anti-DOTA IgG-scFv
Test: Affinity measurement of DOTA-PEG6 Biotin by surface plasmon resonance (Biacore)
Settings: SA chip coated with DOTA-PEG6 Biotin, 1:1 binding model
Description: Affinity measurement of […] by Surface Plasmon Resonance (Biacore). sBiacore T-100 Biosensor, streptavidin (SA) sensor chip, and related reagents were purchased from GE Healthcare. The SA chip coated with […] and then flowed over with an antitumor/anti-DOTA IgG-scFv. The KDs were generated from a sensorgram data series consisting of 6 concentrations of anti-tumor/anti-DOTA IgG-scFv, by fitting to a 1:1 binding model using the Biacore T-100 evaluation software.

## O=C(O)CN1CCN(CC(=O)O)CCN(CC(=O)O)C(Cc2ccc(NC(=S)NCCOCCOCCOCCOCCOCCOCCNC(=O)CCCCC3SC[C@@H]4NC(=O)N[C@H]34)cc2)CN(CC(=O)O)CC1 (stereo partly shown) [DOTA-PEG6 Biotin]
  t½: 3.811 h
6 concentrations of IgG-scFv
  Kd: 0.0686 nM
  ka: 736000 M⁻¹ s⁻¹
  kd: 5.05e-05 s⁻¹
